Measurements from patent US11576943B2, “Functional food composition having cranial nerve protection effect and blood flow improvement effect” (chzin Co., Ltd., priority 2020, dated 2023).
Marks after values point to notes of the source that are not given here.

How the values were obtained:
rats = conditions: administered orally to rats; cited from earlier work
[1] = cited from earlier work
[2] = test system: transient local cerebral ischemia animal model; assay: Cranial neuroprotective action by oral administration in transient local cerebral ischemia animal model (MCAO); type: in vivo, sprague-dawly male rats
Protocol: The measurement of cranial neuroprotective action by oral administration of a sample in the transient local cerebral ischemia animal model was carried out as follows according to a known method.
Experimental animals were 7-week-old sprague-dawly male rats having a weight of 260 to 270 g and the experimental animals were adapted in the breeding room for 7 days before use under the environment in which the contrast cycle was controlled automatically by 12 hours. The temperature of the breeding room was maintained at 23±2° C., the humidity was 55±10%, and food and water were freely ingested.
In order to measure the neuroprotective action according to the oral administration of the sample, an animal model of cerebral ischemia was created. The middle cerebral artery occlusion (MCAO) surgery was performed to create the animal model of cerebral ischemia. […]
In order to measure the neuroprotective action of the sample according to the oral administration, the brain was excised 24 hours after the middle cerebral artery occlusion and stained with 2,3,5-triphenyltetrazolium chloride. […] The area of cerebral infarction (infarct area, mm^2) was measured using a computerized image analyzer, and the infarct volume (mm^3) was calculated by multiplying the total sum of the infarct area of each section by the thickness of the section. The measured values were expressed as mean±SEM (*p<0.05, **p<0.01).

SMILES | LD50 (rats) [mg/kg] | solubility in water [1] | Cerebral infarct volume (mm^3) ([2]; 2 hours after induction of cerebral ischemia and 2 hours after reperfusion, brain excised 24 hours after MCAO, mean±SEM) | Cranial nerve protection effect (%) ([2]; 24 hours after MCAO, relative to physiological saline group)
CC(C)[C@@H]1CC[C@@H](C)C[C@H]1O (racemic) [dl-menthol] | 3180 | rarely dissolved in water |  | 
CC1=NN(c2ccccc2)C(=O)C1 [MCI-186] |  |  | 184.2 ± 17.3** mm^3 | 47.71
